From patent US5936120A, “Deoxygossylic compounds” (University of New Mexico, priority 1997, dated 1999)
“Also recorded” adds a separate entry of the source.

Assays:
[1] = tested on: H9/HIV-IIIB in HT46c cells; test: Anti-HIV assay in vitro: inhibition of HIV replication, focal immunoassay (reduction in foci); assay type: cell-based, HIV-1; details: for anti-HIV activity: in words, tested at 0.01, 0.1, 1.0, 5.0 and 20 μM; for reduction in foci at 5 μM: GIL compared with BDGA
Description: 1,1'-bisdeoxygossypol (BDG), 1,1'-bisdeoxygossylic acid (BDGA), 8-deoxyhemigossypol (DHG) and 8-deoxyhemigossylic acid (DHGA) were synthesized and tested for their ability to inhibit the replication of HIV in vitro. The EC50 for BDGA was <1 μM and its threshold cytotoxicity was approximately 20 μM. […] Like BDGA, the Ec50 for GIL was <1 μM. […] BDG, on the other hand, was ineffective at 1 μM and destroyed >80% of the cell monolayer at 5 μM.
(§1) The anti-HIV assay used was based on a published procedure (J.Virol. 62:3779-3788, 1988) using HT46c (HeLaT4+) cells as host cells for the H9/HIV-III8 strain of the HIV-1 virus. The cells were seeded into 6-well plates, 5×10^4 cells/well, in RPMI 1640 with 10% FBS and allowed to attach overnight. After treatment of the wells with DEAE-dextran, stock virus was added at a concentration that produces 100 -200 foci/well on day 3 in positive control wells. Test compounds were added, and plates incubated for 3 days at 37° C., 5% CO2. Monolayers were fixed with methanol and wells analyzed with a focal immunoassay (FIA). The primary reagent used in the FIA was a polyclonal antibody preparation of sera from AIDS patients. The secondary reagent was a goat anti-human IgG antibody tagged with horseradish peroxidase. The substrate was 3-amino-9-ethylcarbazole in sodium acetate buffer with hydrogen peroxide. Each compound was tested at concentrations of 0.01, 0.1, 1.0, 5.0 and 20 μM. GIL was tested as a standard for comparison.

[2] = tested on: HT46c (HeLaT4+) cells; test: Cytotoxicity in the anti-HIV assay: detectable changes in cell morphology or loss of monolayer adherence to the culture plate; assay type: cell-based; details: for cytotoxicity: in words
Description: (§2) 1,1'-bisdeoxygossypol (BDG), 1,1'-bisdeoxygossylic acid (BDGA), 8-deoxyhemigossypol (DHG) and 8-deoxyhemigossylic acid (DHGA) were synthesized and tested for their ability to inhibit the replication of HIV in vitro.
as §1, with “After” for “The anti-HIV assay used was based on a published procedure (J.Virol. 62:3779-3788, 1988) using HT46c (HeLaT4+) cells as host cells for the H9/HIV-III8 strain of the HIV-1 virus. The cells were seeded into 6-well plates, 5×10^4 cells/well, in RPMI 1640 with 10% FBS and allowed to attach overnight. After”

[3] = as above; assay type: cell-based; details: human, ht46c cells; below threshold = no detectable changes in cell morphology or loss of monolayer adherence
Description: as §2
as §1, with “After” for “The anti-HIV assay used was based on a published procedure (J.Virol. 62:3779-3788, 1988) using HT46c (HeLaT4+) cells as host cells for the H9/HIV-III8 strain of the HIV-1 virus. The cells were seeded into 6-well plates, 5×10^4 cells/well, in RPMI 1640 with 10% FBS and allowed to attach overnight. After”

[4] = tested on: HIV; details: previously found, in vitro; cited from earlier work
[5] = previously shown in similar assays (Pharmacol.Res.); cited from earlier work

## Cc1cc2c(C(C)C)c(O)c(O)c(C=O)c2cc1-c1cc2c(C=O)c(O)c(O)c(C(C)C)c2cc1C [BDG, 6,6',7,7'-Tetrahydroxy-3,3'-dimethyl-5,5'-bis(1-methylethyl)[2,2'-binaphthalene]-8,8'-dicarboxaldehyde]
[1]; 1 μM
  anti-HIV activity at 1 μM: ineffective
[1]
  anti-HIV activity: less effective against HIV
[2]; 5 μM
  destruction of the cell monolayer at 5 μM: > 80%
[2]
  cytotoxicity: much more cytotoxic than BDGA

## Cc1cc2c(C(C)C)c(O)c(O)c(C(=O)O)c2cc1-c1cc2c(C(=O)O)c(O)c(O)c(C(C)C)c2cc1C [BDGA, 6,6',7,7'-Tetrahydroxy-3,3'-dimethyl-5,5'-bis(1-methylethyl)[2,2'-binaphthalene]-8,8'-dicarboxylic Acid]
[1]
  reduction in foci at 5 μM: same reduction in foci
  anti-HIV activity: approximately as effective as GIL
[2]
  toxicity at 5.0 μM: No toxicity was noted
[2]; 20 μM
  monolayer destruction at 20 μM: Some signs of monolayer destruction

## Cc1ccc2c(C=O)c(O)c(O)c(C(C)C)c2c1 [DHG, 2,3-dihydroxy-6-methyl-4-(1-methylethyl)-1-naphthaldehyde]
[1]
  anti-HIV activity: some anti-HIV activity; also recorded: less active
[3]
  MCC: 54 µM
[2]
  cytotoxicity: more cytotoxic

## Cc1ccc2c(C(=O)O)c(O)c(O)c(C(C)C)c2c1 [DHGA, 2,3-dihydroxy-6-methyl-4-(1-methylethyl)-1-naphthoic Acid]
[1]; even at 20 μM
  effect on viral replication at 20 μM: no observable effect on viral replication
[1]
  anti-HIV activity: ineffective against HIV
[2]; even at 20 μM
  effect on cell morphology at 20 μM: no observable effect on viral replication or cell morphology
[2]
  cytotoxicity: very low cytotoxicity

## Cc1cc2c(C(C)C)c(O)c(O)c3c2c(c1-c1c(C)cc2c(C(C)C)c(O)c(O)c4c2c1OC4=N)OC3=N [GIL, gossylic iminolactone]
[1]
  reduction in foci at 5 μM: same reduction in foci
[2]
  toxicity at 5.0 μM: No toxicity was noted
[4]
  anti-HIV activity relative to gossypol: more active; also recorded: more effective than gossypol
[5]
  cytotoxicity relative to gossypol: less cytotoxic than gossypol
